According to ChEMBL document CHEMBL1201862, “PubChem BioAssay data set” (2004):
Active and inactive are the calls of the source.

What was measured:
[1] = target: T1, Microphthalmia-associated transcription factor (Homo sapiens, UniProt O75030); test: TRPM1 promoter luciferase signal decrease, dose response, MITF inhibitor project, cell-based, SK-MEL-5, cherry-picked, set 3 (AID 493073); format: functional
T1 sequence (O75030 whole entry): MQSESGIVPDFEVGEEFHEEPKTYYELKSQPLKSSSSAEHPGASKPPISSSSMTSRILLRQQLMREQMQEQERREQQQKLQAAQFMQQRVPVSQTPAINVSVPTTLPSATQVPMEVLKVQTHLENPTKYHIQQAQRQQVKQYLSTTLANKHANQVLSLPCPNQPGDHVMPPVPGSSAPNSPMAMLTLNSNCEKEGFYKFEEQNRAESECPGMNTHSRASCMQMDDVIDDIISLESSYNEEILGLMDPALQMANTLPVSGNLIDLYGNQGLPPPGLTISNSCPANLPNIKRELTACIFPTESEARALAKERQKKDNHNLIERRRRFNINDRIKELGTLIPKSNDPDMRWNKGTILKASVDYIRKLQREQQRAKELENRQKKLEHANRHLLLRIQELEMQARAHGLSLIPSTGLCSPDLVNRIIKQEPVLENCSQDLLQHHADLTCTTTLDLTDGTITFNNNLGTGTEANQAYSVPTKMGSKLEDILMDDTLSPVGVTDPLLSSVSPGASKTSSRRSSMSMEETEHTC

[2] = Vero E6 cell cytotoxicity, dose response, cytotoxicity control for non-replicating M. tuberculosis project, secondary assay (AID 492998); format: functional, VeroE6; conditions: Vero C1008
[3] = Luminescence Cell-Based Dose Retest to Confirm Inhibitors of Cancer Stem Cells. [Related pubchem assays (depositor defined):AID2717, AID2721]; format: functional; conditions: Homo sapiens
[4] = microbe, parasite or virus in culture; format: functional; conditions: Mycobacterium tuberculosis
cells = format: functional
[5] = THP-1 cell cytotoxicity, dose response, cytotoxicity control for non-replicating M. tuberculosis project (AID 489025); format: functional
Cytochrome P450 3A4 = Cytochrome P450 3A4 (Homo sapiens, UniProt P08684);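 further: CYP3A4 tested as one member of a cytochrome P450 panel screen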
[6] = target: T2, Carboxy-terminal domain RNA polymerase II polypeptide A small phosphatase 1 (Homo sapiens, UniProt Q9GZU7); test: inhibitors of CTDSP1, concentration-response testing, biochemical assay, absorbance-based, actives from ultra-high-throughput screening (AID 540297); format: functional
T2 sequence (Q9GZU7 whole entry): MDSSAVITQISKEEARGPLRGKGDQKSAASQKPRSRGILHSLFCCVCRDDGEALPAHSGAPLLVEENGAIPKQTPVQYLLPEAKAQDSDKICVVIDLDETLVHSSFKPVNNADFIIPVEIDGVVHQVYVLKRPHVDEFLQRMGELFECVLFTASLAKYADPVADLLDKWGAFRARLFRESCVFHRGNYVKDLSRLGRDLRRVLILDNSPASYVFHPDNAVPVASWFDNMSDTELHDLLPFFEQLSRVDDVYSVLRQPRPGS

[7] = HEp-2 cell cytotoxicity, dose response, cytotoxicity control for RSV inhibitor project, HTS (AID 2410); format: functional; conditions: human respiratory syncytial virus
[8] = target: T3, Apoptotic protease-activating factor 1 (Homo sapiens, UniProt O14727); format: functional
T3 sequence (O14727 whole entry): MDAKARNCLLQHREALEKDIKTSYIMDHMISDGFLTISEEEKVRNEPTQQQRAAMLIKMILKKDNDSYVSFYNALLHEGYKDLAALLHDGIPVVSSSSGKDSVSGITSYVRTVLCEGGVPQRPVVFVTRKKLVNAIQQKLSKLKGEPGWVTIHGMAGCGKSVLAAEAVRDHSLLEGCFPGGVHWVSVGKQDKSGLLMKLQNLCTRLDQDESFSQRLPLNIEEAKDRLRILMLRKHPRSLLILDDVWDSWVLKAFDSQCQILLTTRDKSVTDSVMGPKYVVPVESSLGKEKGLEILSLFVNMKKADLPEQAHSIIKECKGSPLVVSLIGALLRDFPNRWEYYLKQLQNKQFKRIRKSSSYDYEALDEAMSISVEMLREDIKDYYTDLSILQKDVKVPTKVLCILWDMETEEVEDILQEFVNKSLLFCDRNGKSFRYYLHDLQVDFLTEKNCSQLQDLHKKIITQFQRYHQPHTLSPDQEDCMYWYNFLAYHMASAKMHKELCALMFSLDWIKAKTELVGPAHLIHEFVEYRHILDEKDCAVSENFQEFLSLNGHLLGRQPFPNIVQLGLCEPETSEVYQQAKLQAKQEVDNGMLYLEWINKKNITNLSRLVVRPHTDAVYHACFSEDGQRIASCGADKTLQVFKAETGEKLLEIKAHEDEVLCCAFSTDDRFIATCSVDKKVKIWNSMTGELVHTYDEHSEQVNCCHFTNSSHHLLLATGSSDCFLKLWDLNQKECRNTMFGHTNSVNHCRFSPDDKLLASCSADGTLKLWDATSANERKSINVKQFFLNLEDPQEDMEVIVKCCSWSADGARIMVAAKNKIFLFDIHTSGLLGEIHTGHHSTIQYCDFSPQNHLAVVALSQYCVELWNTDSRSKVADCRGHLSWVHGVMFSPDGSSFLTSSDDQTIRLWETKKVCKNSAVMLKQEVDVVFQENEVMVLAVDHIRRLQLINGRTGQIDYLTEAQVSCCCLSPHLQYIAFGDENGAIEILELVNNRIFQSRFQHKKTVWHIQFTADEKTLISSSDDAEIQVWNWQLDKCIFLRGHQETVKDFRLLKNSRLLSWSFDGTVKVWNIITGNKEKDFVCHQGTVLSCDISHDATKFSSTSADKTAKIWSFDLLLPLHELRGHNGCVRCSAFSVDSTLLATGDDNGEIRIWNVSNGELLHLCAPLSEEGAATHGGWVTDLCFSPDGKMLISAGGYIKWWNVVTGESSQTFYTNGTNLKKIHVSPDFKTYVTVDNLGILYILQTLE

A-375 [9] = test: A375 melanoma cell viability reduction, dose response, counter-screen for MITF modulator project, cherry-pick samples, set 2 (AID 540335); format: functional, cell-based; conditions: Homo sapiens
A-375 [10] = test: MITF: Counter assay: A375 proliferation Measured in Cell-Based System Using Plate Reader - 2084-03_Inhibitor_Dose_DryPowder_Activity. [Related pubchem assays (depositor defined):AID488944]; format: functional; conditions: Homo sapiens
P388 = test: cells; format: functional; conditions: Mus musculus
SN12K1 = test: cells; format: functional; conditions: Homo sapiens
P388/ADR = test: cells; format: functional; conditions: Mus musculus
[11] = target: DNA dC->dU-editing enzyme APOBEC-3G (Homo sapiens, UniProt Q9HC16); format: functional;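 further: Dose-response counterscreen measuring inhibition of APOBEC3G DNA deaminase activity, run while confirming APOBEC3A inhibitors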
[12] = target: DNA dC->dU-editing enzyme APOBEC-3A (Homo sapiens, UniProt P31941); test: Dose Response confirmation of small molecule APOBEC3A DNA Deaminase Inhibitors via a fluorescence-based single-stranded DNA deaminase assay. [Related pubchem assays (depositor defined):AID493011, AID493024]; format: functional
[13] = target: T4, Ubiquitin-conjugating enzyme E2 N (Homo sapiens, UniProt P61088); format: functional;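 further: Dose-response confirmation in a TR-FRET assay detecting UBC13-driven polyubiquitin chain formation, inhibition measured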
T4 sequence (P61088 whole entry): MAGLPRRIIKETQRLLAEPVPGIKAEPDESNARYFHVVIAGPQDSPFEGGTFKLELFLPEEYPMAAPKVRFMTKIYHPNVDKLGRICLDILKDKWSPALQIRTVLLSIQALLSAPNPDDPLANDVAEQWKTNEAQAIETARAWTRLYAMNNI

HEK293 = test: inhibitors of LMP1-driven NF-kB reporter, dose response, cell-based, HEK293, luciferase, cherry-pick (AID 588343); format: functional; conditions: Homo sapiens
[14] = Luminescence Cell-Based Dose Response HTS to Identify Activators of Luciferase Translation or Activity in H4 […] Cells. [Related pubchem assays: 1829 (Project Summary), 1814 (Primary HTS)]; format: functional
H4 = test: Luminescence Cell-Based Dose Response HTS to Identify Activators of 5'UTR Stem-Loop Driven Prion Protein mRNA Translation in H4 Neuroglioblastoma Cells. [Related pubchem assays: 1829 (Project Summary), 1814 (Primary HTS)]; format: functional; conditions: Homo sapiens
[15] = Luminescence Cell-Based Dose Confirmation HTS to Identify Activators of 5'UTR Stem-Loop Driven Alpha-Synuclein mRNA Translation in H4 Neuroglioblastoma Cells. [Related pubchem assays: 1829 (Project Summary), 1814 (Primary HTS)]; format: functional
Cytochrome P450 1A2 = target: T5, Cytochrome P450 1A2 (Homo sapiens, UniProt P05177);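 further: PubChem cytochrome P450 panel assay, CYP1A2 panel member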
T5 sequence (P05177 whole entry): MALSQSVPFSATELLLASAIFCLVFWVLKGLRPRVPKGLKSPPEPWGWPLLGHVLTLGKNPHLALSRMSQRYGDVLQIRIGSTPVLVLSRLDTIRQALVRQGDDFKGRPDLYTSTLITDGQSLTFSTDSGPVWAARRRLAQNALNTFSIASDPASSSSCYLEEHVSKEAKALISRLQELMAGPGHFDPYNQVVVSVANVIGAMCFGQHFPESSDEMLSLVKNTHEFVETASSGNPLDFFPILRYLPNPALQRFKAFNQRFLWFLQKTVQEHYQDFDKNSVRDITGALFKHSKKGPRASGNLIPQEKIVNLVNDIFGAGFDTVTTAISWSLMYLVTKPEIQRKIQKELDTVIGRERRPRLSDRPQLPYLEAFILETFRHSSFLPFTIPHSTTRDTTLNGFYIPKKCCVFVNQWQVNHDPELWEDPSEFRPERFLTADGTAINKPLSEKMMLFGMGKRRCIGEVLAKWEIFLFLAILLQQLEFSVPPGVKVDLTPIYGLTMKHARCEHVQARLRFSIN

[16] = target: Ras and Rab interactor 1/Tyrosine-protein kinase ABL1 (Homo sapiens, UniProt P00519+Q13671); format: functional;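 further: biochemical TR-FRET dose-response test measuring inhibition of binding between Rin1 and Abl proteins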
[17] = inhibitors of intracellular T. cruzi replication, confirmation, NIH3T3 host cells, beta-gal luminescence (AID 2044); format: functional, cell-based;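 further: intracellular parasites grown in NIH/3T3 mouse fibroblasts as host cells; luminescent beta-galactosidase reporter signal from transgenic T. cruzi replicating inside host cells; inhibitors lower the luminescence signal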
[18] = cytotoxicity toward NIH3T3 fibroblasts, dose response, counter-screen, cell-based, ATP luminescence, mouse fibroblasts (AID 2010); format: functional;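 further: cells exposed to compound for about 90 hours before reading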

Ras and Rab interactor 1/Tyrosine-protein kinase ABL1, sequence (P00519 whole entry): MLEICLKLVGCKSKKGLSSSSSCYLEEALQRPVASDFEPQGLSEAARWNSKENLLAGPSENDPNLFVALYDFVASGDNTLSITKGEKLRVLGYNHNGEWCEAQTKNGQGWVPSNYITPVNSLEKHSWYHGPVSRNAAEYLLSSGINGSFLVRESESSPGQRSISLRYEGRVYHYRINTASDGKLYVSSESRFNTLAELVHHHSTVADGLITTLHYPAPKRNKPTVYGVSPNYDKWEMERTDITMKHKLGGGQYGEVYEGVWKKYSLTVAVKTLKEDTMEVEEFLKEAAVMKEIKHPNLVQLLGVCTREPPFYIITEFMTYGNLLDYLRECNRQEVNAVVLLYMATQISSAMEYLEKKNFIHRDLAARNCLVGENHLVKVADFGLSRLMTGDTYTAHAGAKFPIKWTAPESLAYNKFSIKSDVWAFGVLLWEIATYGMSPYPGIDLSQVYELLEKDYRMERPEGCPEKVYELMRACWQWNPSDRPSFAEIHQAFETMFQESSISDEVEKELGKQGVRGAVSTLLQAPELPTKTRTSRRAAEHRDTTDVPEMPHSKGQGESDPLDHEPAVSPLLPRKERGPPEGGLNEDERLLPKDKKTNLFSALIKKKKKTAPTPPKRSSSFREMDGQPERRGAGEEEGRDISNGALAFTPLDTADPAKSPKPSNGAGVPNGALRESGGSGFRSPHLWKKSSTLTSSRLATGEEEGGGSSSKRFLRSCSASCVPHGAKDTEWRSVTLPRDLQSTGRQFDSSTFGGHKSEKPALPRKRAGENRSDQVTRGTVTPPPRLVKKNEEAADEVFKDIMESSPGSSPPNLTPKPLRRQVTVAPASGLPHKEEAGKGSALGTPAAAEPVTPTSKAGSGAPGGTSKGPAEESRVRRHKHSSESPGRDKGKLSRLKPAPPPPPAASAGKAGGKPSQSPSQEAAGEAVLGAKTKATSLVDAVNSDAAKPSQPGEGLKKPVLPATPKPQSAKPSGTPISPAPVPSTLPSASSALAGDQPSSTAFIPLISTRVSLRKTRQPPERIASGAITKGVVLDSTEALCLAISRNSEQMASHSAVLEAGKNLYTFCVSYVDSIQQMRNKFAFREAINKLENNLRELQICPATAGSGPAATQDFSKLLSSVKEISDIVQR
Ras and Rab interactor 1/Tyrosine-protein kinase ABL1, sequence (Q13671 whole entry): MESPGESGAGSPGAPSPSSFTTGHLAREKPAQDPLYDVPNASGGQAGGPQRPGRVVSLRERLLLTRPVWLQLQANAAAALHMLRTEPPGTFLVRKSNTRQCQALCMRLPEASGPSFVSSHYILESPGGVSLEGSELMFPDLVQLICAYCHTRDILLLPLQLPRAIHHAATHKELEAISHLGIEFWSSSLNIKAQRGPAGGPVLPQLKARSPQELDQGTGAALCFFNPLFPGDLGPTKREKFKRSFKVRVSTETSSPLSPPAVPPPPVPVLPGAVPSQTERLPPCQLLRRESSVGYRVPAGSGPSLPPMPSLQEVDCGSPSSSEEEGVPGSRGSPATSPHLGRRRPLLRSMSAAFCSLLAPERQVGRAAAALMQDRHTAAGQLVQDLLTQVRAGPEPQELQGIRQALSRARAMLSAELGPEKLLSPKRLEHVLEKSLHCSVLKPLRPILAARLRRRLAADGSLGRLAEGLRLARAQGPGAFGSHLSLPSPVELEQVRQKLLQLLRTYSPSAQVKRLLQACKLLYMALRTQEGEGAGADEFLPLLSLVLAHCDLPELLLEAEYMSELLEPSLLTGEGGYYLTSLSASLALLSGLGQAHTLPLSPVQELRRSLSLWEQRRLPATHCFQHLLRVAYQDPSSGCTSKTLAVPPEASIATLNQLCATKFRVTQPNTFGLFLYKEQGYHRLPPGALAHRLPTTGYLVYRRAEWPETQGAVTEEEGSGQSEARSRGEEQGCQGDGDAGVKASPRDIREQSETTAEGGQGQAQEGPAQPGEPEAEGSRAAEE
Cytochrome P450 3A4, sequence (P08684 whole entry, the tested form may be a part): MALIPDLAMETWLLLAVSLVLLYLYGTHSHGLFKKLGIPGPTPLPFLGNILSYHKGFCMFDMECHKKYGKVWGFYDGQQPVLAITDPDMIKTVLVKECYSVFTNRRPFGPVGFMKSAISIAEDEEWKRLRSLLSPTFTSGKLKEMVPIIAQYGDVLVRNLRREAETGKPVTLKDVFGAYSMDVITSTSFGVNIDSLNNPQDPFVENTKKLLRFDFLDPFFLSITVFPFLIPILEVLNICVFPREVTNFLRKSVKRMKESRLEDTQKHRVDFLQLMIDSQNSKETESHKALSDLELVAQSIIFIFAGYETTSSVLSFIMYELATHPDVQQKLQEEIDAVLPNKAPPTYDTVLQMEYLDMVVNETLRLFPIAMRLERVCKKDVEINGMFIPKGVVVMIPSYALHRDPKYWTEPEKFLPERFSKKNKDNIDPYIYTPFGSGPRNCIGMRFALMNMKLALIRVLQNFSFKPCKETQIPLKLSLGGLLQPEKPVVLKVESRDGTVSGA
DNA dC->dU-editing enzyme APOBEC-3A, sequence (P31941 whole entry): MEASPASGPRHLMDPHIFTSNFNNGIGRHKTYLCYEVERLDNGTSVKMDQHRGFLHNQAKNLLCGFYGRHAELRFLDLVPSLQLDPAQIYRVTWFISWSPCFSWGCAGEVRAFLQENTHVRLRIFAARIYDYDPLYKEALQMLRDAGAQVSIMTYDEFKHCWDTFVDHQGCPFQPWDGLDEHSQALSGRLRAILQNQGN
DNA dC->dU-editing enzyme APOBEC-3G, sequence (Q9HC16 whole entry): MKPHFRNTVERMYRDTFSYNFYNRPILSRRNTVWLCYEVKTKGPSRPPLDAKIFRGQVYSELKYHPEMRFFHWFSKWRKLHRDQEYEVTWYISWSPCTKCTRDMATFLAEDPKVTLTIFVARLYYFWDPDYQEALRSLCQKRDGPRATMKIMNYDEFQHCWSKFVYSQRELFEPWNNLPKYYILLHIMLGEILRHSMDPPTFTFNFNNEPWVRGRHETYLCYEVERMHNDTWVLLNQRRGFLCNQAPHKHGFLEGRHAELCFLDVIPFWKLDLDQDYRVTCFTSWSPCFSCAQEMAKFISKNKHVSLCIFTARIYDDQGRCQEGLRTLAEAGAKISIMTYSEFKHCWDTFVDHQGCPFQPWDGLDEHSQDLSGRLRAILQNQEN

## COc1ccccc1OCCN1CSC(=S)N(C)C1
[1]
  AC50: 12.2 µM (active)
[2]
  CC50: 5.83 µM (active)
[3]
  AC50: 2.4 µM (active)
[4]
  CC50: 7.54 µM (active)
cells
  IC50: 6.69 µM (active)
[5]
  CC50: 6.71 µM (active)

## CCCN(C/C=C\I)[C@@H]1CCc2cccc(O)c2C1
Cytochrome P450 3A4
  AC50: inconclusive

## CC(=O)N1CCC2(CC1)CN(C(c1ccccc1)c1ccccc1)C2
Cytochrome P450 3A4
  AC50: inconclusive

## CCOC(=O)C[n+]1c2n(c3ccccc31)CC(O)CS2 (stereo not given)
[6]
  IC50: 6.53 µM (active)

## CC(=O)c1ccc(N2CCN(S(=O)(=O)c3ccc4c5c3CC(=O)N5CC(C)S4)CC2)cc1 (stereo not given)
[7]
  CC50: 17 µM (active)
[8]
  IC50: 50.7 µM (active)

## COc1nc(NC2CCCCC2)nc(NC(C)(C)C)n1
A-375 [9]
  AC50: > 35 µM (active)
A-375 [10]
  AC50: > 35 µM (active)

## O=C(/C=C\c1ccc(/C=C/C(=O)Nc2cccc(C3=NCCCN3)c2)cc1)Nc1cccc(C2=NCCCN2)c1
P388
  GI50: 0.303 µM (active)
SN12K1
  GI50: > 100 µM (inactive)
P388/ADR
  GI50: 79.3 µM (inactive)

## CCN(CC)P(c1n(C)cc[n+]1C)N(CC)CC
[11]
  IC50: 3.2 µM (active)
[6]
  IC50: 3.52 µM (active)
[12]
  IC50: 2.47 µM (active)

## COc1ccc(C(=O)Nn2c(SCC(=O)c3ccc(Cl)cc3)nc3ccccc3c2=O)cc1
[13]
  IC50: > 20 µM (inactive)
HEK293
  AC50: 8.36 µM (active)

## CCc1nnc(NC(=O)c2cc(-c3ccccc3)nn2-c2ccccc2)s1
Cytochrome P450 3A4
  AC50: inconclusive
[14]
  EC50: 7.74 µM (active)
H4
  EC50: > 120 µM (not active)
[15]
  EC50: > 120 µM (not active)
Cytochrome P450 1A2
  AC50: 15.8 µM (inconclusive)

## O=C(CNC(=O)c1ccc(Br)cc1)c1ccccc1
A-375 [9]
  AC50: > 35 µM (active)
A-375 [10]
  AC50: > 35 µM (active)

## O=C(CC1SCCNC1=O)Nc1ccc(F)c(Cl)c1 (stereo not given)
[16]
  IC50: 25.7 µM (inactive)

## COC(=O)[C@]12CC=C3O[C@@H]4OC5(CCCCC5)O[C@@H]4[C@H]3C1C(=O)C=CC2=O (stereo not given in full)
P388
  GI50: 2.81 µM (inactive)
SN12K1
  GI50: 16 µM (inactive)
P388/ADR
  GI50: 2.96 µM (inactive)

## COc1cc(C2c3cc4c(cc3[C@@H](Nc3ccc5c(c3)OCCO5)C3COC(=O)[C@H]23)OCO4)cc(OC)c1O (stereo not given in full)
P388
  GI50: < 0.01 µM (active)
SN12K1
  GI50: 0.274 µM (active)
P388/ADR
  GI50: 0.229 µM (active)

## COc1ccc(CNC(=O)C2CSC(=O)C2)cc1 (stereo not given)
Cytochrome P450 3A4
  AC50: inconclusive
[17]
  EC50: > 30 µM (not active)
[18]
  EC50: 10.3 µM (active)

## CCOC(=O)c1ccc(NC(=O)COc2ccccc2CNCCO)cc1
[16]
  IC50: 25.3 µM (inactive)

## CCOC(=O)/C(=C\c1ccccc1)C(=O)CCN1CCOCC1
P388
  GI50: 0.627 µM (active)
SN12K1
  GI50: 5.53 µM (inactive)
P388/ADR
  GI50: 1.13 µM (inactive)

## COc1cc(C(=O)Nc2ccc(O)cc2C(=O)O)ccc1OC(C)=O
[16]
  IC50: 0.659 µM (active)

## Clc1ccc(-c2noc(CN3CCOCC3)n2)cc1
A-375 [9]
  AC50: > 35 µM (active)
A-375 [10]
  AC50: > 35 µM (active)
